Experimental data as given in ChEMBL document CHEMBL1268978, “Arylpiperazine-containing pyrimidine 4-carboxamide derivatives targeting serotonin 5-HT(2A), 5-HT(2C), and the serotonin transporter as a potential antidepressant” (Bioorg Med Chem Lett, 2010).
Calls of active or inactive are those of the source. No cut-off for these calls is given here.

Columns and labels:
[1] = biological target: Sodium-dependent serotonin transporter (Homo sapiens, UniProt P31645); assay: Displacement of [3H]imipramine from human recombinant SERT receptor expressed in HEK293 cells; format: cell-based
Mus musculus [2] = assay: Toxicity in mouse assessed as induction of hypoactivity measured for 30 mins at 25 mg/kg, ip measured by spontaneous locomotor activity assay; format: organism-based; design: dose 25 mg/kg, route intraperitoneal; settings: in vivo, 0.5 h
[3] = biological target: 5-hydroxytryptamine receptor 2A (Homo sapiens, UniProt P28223); assay: Displacement of [3H]ketanserin from human recombinant 5HT2A receptor expressed in CHO-K1 cells; format: cell-based
Mus musculus [4] = assay: Antidepressant activity in mouse at 25 mg/kg, ip administered 30 mins before test by forced swimming test; format: functional, organism-based; design: dose 25 mg/kg
Mus musculus [5] = assay: Toxicity in mouse assessed as induction of hyperactivity measured for 30 mins at 25 mg/kg, ip measured by spontaneous locomotor activity assay; format: organism-based; design: dose 25 mg/kg, route intraperitoneal; settings: in vivo, 0.5 h
[6] = biological target: T1, 5-hydroxytryptamine receptor 2C (Homo sapiens, UniProt P28335); assay: Displacement of [3H]mesulergine from human recombinant 5HT2C receptor expressed in CHO-K1 cells; format: cell-based
T1 sequence (P28335 whole entry): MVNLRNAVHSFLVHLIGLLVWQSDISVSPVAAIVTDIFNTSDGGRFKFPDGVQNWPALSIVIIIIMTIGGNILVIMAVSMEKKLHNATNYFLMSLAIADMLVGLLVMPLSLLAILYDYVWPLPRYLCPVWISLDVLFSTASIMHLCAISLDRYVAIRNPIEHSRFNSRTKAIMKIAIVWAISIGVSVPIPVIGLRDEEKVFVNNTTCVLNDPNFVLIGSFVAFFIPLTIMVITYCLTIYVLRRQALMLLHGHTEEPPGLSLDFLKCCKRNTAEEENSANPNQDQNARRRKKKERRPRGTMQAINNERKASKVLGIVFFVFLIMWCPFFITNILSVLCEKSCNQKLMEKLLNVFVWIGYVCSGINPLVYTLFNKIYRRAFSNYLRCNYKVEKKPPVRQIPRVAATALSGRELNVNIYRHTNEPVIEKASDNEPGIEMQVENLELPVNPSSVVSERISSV

[7] = biological target: Voltage-gated inwardly rectifying potassium channel KCNH2 (Homo sapiens, UniProt Q12809); assay: Inhibition of human ERG channel
Cytochrome P450 2C9 = Cytochrome P450 2C9 (Homo sapiens, UniProt P11712); assay: Inhibition of CYP2C9; format: ADME
Cytochrome P450 2D6 = Cytochrome P450 2D6 (Homo sapiens, UniProt P10635); assay: Inhibition of CYP2D6; format: ADME
Cytochrome P450 1A2 = biological target: T2, Cytochrome P450 1A2 (Homo sapiens, UniProt P05177); assay: Inhibition of CYP1A2; format: ADME
T2 sequence (P05177 whole entry): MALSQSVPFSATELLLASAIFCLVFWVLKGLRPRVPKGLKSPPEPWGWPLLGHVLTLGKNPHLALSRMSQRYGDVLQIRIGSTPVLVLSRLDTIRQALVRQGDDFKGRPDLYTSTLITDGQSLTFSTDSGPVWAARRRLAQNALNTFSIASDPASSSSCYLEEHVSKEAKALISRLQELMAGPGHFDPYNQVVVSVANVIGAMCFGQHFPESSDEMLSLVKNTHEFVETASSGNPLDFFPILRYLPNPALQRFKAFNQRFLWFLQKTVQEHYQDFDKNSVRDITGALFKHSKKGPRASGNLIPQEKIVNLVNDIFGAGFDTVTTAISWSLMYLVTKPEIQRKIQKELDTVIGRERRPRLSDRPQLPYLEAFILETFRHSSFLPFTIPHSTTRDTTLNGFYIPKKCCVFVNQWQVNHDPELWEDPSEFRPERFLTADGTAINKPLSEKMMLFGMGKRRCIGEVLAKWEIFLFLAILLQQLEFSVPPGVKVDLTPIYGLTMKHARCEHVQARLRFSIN

Cytochrome P450 3A4 = Cytochrome P450 3A4 (Homo sapiens, UniProt P08684); assay: Inhibition of CYP3A4; format: ADME
Sequence of Cytochrome P450 3A4 (P08684 whole entry): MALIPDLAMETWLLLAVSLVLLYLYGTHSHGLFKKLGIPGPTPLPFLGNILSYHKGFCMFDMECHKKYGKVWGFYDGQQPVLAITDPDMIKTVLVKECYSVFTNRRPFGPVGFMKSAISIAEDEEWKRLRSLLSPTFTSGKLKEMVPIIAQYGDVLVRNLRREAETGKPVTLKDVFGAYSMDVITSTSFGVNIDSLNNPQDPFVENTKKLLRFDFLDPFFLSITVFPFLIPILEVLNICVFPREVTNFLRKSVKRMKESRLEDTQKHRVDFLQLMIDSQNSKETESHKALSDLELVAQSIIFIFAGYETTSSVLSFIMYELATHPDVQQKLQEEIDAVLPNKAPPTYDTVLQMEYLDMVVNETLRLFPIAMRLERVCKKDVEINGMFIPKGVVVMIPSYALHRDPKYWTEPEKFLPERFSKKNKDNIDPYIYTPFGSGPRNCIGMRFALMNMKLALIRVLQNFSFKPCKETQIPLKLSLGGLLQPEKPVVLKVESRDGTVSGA

Sequence of Sodium-dependent serotonin transporter (P31645 whole entry): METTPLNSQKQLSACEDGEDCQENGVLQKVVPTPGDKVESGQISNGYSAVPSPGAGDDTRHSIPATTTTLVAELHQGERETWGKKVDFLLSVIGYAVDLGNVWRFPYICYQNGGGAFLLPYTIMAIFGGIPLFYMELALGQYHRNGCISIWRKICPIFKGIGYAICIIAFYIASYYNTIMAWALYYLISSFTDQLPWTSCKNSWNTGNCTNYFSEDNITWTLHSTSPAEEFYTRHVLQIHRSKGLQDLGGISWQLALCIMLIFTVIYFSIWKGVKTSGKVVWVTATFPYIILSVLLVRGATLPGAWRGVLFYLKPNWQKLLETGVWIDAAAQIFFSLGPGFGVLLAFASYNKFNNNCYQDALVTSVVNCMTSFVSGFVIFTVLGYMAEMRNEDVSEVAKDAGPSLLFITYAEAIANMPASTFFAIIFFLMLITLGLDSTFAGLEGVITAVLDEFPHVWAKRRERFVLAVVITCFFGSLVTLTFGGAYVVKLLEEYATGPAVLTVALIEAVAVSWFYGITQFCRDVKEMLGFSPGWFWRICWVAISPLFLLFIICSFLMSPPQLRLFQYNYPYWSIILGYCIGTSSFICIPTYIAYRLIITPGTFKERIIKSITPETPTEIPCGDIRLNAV
Sequence of 5-hydroxytryptamine receptor 2A (P28223 whole entry): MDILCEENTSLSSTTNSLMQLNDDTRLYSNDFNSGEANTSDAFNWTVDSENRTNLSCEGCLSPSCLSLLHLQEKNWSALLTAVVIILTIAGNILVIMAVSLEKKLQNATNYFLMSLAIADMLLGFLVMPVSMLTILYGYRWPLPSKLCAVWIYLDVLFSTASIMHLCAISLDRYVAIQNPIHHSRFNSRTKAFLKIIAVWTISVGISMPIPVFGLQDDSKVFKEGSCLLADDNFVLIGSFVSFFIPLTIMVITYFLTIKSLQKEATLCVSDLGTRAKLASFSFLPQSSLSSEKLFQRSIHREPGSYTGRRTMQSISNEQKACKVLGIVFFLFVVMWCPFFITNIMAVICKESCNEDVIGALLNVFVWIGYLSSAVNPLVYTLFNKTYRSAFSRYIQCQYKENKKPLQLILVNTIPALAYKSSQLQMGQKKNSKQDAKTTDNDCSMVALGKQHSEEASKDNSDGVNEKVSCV
Sequence of Voltage-gated inwardly rectifying potassium channel KCNH2 (Q12809 whole entry): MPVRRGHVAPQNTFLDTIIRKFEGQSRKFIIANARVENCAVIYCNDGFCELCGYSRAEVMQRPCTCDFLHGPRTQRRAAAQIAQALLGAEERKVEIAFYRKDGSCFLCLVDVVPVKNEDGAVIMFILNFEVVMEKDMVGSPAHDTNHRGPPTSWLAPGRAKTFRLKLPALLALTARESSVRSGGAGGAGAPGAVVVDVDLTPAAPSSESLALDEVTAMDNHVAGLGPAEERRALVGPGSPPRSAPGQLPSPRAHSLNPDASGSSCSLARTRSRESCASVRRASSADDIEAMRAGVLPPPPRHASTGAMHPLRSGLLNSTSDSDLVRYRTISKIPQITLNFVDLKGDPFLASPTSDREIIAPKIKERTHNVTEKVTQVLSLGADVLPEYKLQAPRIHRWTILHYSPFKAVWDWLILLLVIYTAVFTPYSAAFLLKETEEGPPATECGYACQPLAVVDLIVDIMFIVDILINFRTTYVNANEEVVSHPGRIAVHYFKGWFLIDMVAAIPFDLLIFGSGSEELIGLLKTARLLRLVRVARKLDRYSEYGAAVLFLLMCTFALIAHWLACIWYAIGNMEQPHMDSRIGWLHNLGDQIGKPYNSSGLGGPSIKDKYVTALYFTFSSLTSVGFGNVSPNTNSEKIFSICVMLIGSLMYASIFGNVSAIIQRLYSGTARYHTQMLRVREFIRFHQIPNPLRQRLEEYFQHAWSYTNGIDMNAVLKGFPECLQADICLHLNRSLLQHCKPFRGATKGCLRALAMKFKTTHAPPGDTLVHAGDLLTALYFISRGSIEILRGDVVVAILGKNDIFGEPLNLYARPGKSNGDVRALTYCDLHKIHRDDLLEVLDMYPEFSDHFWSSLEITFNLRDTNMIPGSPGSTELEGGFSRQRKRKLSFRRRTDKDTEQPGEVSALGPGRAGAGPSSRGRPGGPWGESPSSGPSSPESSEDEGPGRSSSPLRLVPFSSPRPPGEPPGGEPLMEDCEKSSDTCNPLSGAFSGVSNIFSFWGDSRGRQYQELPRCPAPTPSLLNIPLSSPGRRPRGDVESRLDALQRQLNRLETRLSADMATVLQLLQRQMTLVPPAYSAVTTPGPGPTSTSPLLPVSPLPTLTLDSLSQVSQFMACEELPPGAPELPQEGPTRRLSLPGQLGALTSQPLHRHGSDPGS
Sequence of Cytochrome P450 2D6 (P10635 whole entry): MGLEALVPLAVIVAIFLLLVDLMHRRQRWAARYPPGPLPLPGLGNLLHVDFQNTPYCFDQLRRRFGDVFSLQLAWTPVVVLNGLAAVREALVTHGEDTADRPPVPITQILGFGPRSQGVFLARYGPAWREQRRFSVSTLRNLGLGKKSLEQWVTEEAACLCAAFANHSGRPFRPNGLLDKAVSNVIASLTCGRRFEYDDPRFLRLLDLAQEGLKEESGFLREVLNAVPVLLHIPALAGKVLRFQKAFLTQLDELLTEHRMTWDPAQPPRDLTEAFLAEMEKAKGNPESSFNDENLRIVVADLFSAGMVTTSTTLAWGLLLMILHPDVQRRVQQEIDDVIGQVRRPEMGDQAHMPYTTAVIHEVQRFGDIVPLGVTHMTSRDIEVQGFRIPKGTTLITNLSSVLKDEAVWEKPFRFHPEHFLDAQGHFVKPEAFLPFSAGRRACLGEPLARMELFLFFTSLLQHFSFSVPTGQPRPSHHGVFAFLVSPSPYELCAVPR
Sequence of Cytochrome P450 2C9 (P11712 whole entry): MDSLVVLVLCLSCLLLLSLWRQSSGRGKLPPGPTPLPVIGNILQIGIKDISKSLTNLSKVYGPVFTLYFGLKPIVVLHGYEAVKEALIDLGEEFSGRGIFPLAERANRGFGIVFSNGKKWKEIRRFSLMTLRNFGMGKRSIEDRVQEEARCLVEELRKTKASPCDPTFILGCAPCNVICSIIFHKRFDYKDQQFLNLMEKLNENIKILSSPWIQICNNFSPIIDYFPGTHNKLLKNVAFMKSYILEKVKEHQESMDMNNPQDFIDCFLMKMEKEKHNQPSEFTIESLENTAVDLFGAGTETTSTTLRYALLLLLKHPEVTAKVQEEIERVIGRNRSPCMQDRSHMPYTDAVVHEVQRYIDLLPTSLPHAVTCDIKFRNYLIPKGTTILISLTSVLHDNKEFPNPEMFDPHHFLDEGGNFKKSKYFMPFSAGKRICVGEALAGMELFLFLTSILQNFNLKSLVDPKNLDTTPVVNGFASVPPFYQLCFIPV

SMILES | IC50 [1] [nM] | Activity (Mus musculus [2]) | IC50 [3] [nM] | Activity (Mus musculus [4]) | Activity (Mus musculus [5]) | IC50 [6] [nM] | IC50 [7] [nM] | IC50 (Cytochrome P450 2C9) [nM] | IC50 (Cytochrome P450 2D6) [nM] | IC50 (Cytochrome P450 1A2) [nM] | IC50 (Cytochrome P450 3A4) [nM]
CSc1nc(C)cc(C(=O)NCCCN2CCN(c3cccc(C)c3C)CC2)n1.Cl | 394 | Non-toxic | 54 | Active | Non-toxic | 1170 |  |  |  |  | 
Cc1cc(C(=O)NCCCN2CCN(c3cccc(C)c3C)CC2)nc(C2CC2)n1.Cl | 347 | Non-toxic | 256 |  | Non-toxic | 1180 |  |  |  |  | 
COc1c(C)nc(C)nc1C(=O)NCCN1CCN(c2cccc(C)c2C)CC1.Cl | 2100 | Non-toxic | 842 |  | Non-toxic | 1270 |  |  |  |  | 
COc1c(C)nc(C)nc1C(=O)NCCCN1CCN(c2cccc(C)c2C)CC1.Cl | 892 | Toxic | 744 |  |  | 2050 |  |  |  |  | 
Cc1cc(C(=O)NCCCN2CCN(c3cccc(C)c3C)CC2)nc(C(C)(C)C)n1.Cl | 537 | Non-toxic | 274 |  | Non-toxic | 2690 |  |  |  |  | 
Cc1nc(C(=O)NCCCN2CCN(c3cccc(Cl)c3Cl)CC2)cc(-c2ccccc2)n1 | 588 |  | 35 |  |  | 30 |  |  |  |  | 
Cc1nc(C(=O)NCCCN2CCN(c3cccc(C)c3C)CC2)cc(C(C)(C)C)n1.Cl | 730 | Non-toxic | 458 |  | Non-toxic | 575 | 5900 |  |  |  | 
Cc1nc(C(=O)NCCCN2CCN(c3cccc(C)c3C)CC2)cc(C(C)C)n1.Cl | 1210 | Non-toxic | 490 |  | Non-toxic | 1550 |  |  |  |  | 
Cc1cc(C(=O)NCCCN2CCN(c3cccc(Cl)c3Cl)CC2)nc(C)n1.Cl | 289 |  | 166 | Active | Non-toxic | 610 |  |  |  |  | 
CSc1nc(C)cc(C(=O)NCCN2CCN(c3cccc(C)c3C)CC2)n1.Cl | 1010 | Non-toxic | 47 | Active | Non-toxic | 148 |  | > 20000 | > 20000 | > 20000 | > 20000
COc1c(C)nc(C)nc1C(=O)NCCN1CCN(c2cccc(Cl)c2Cl)CC1.Cl | 646 | Non-toxic | 263 |  | Non-toxic | 135 |  |  |  |  | 
Cc1nc(C(=O)NCCCN2CCN(c3cccc(Cl)c3Cl)CC2)cc(C(C)C)n1.Cl | 644 | Non-toxic | 113 | Active | Non-toxic | 227 | 5400 |  |  |  | 
CSc1nc(C)cc(C(=O)NCCN2CCN(c3cccc(Cl)c3Cl)CC2)n1.Cl | 881 | Non-toxic | 55 | Active | Non-toxic | 81 |  |  |  |  | 
Cc1cc(C(=O)NCCN2CCN(c3cccc(C)c3C)CC2)nc(C(C)(C)C)n1.Cl | 6370 | Non-toxic | 69 |  | Non-toxic | 494 |  |  |  |  | 
